Test results published in patent publication US20210284668A1, “GOLD (I)-PHOSPHINE 1,2,3-TRIAZOLE DERIVATIVES WITH ANTIBIOTIC PROPERTIES” (Centre National de la Recherche Scientifique, priority 2018, published 2021).
Where “and” joins values, the source holds several entries; their conditions need not be identical. Equal values may be shown once.

Legend:
S. aureus ATCC25923 = test: MIC by microdilution, S. aureus ATCC25923; format: cell-based, Staphylococcus aureus; settings: S. aureus ATCC25923 (MecA negative, wild-type), Mueller-Hinton broth, in duplicate
Method: (§1) The antibacterial profile of each derivative was evaluated by the standard microdilution method for susceptibility testing on 16 different strains, following the guidelines of CLSI. The selected panel included: • S. aureus ATCC25923 (MecA negative, wild-type) • S. aureus ATCC29213 (MecA negative, wild-type) • S. aureus ATCC700699 (MecA positive, glycopeptide resistant) • S. aureus ST20131365 (MecA positive, glycopeptide resistant) • S. epidermidis ATCC14990 (MecA negative, wild-type) • S. epidermidis ATCC35984 (MecA positive) • S. epidermidis ST20140436 (MecA positive, glycopeptide resistant) • S. epidermidis ST20150446 (MecA positive, glycopeptide resistant) • E. faecalis JH2-2 (wild-type) • E. faecalis UCN41 (VanA positive, glycopeptide resistant) • E. faecalis V583 (VanB positive, glycopeptide resistant) • E. faecium ATCC19434T (wild-type) • E. faecium BM4147 (VanA positive, glycopeptide resistant) • E. faecium AUS0004 (VanB positive, glycopeptide resistant) • E. coli ATCC25922 (wild-type) • Clostridium difficile ATCC9689 (wild-type)
(§2) Both series issued from the SAR study were evaluated for their antibacterial activity on a panel of characterized strains obtained from the French National Reference Centers for Staphylococci (Lyon, Pr. Fréderique Laurent) and for Enterococci (Caen, Pr. Vincent Cattoir), respectively. As shown in the following tables, both series contain very active compounds on multi-resistant Gram-positive bacteria (Minimal Inhibitory Concentrations lower than comparator antibiotic ampicillin). Furthermore, a very important antibacterial effect has been shown too on a strain of Clostridium difficile, a Gram-positive, spore-forming, bacillus responsible for post-antibiotic diarrhoae.
(§3) The antibacterial activity of test compounds was evaluated on a selected panel of Gram-positive (4 Staphylococcus aureus, 4 Staphylococcus epidermidis, 3 Enterococcus faecalis, 3 Enterococcus faecium, 1 Clostridium difficile) and Gram-negative strains (1 Escherichia coli, 1 Klebsiella pneumoniae, 1 Pseudomonas aeruginosa, 1 Acinetacter baumannii) with known features of antibiotic resistance (from wild-type susceptibility to multi-drug resistance). The Minimal Inhibitory Concentration (MIC) of test compounds was determined in duplicate by the microdilution method in 96-well microplates with a final volume of 100 μL per well and Mueller-Hinton broth as the growth medium, as recommended by the CLSI (Clinical and Laboratory Standards Institute, document Mo7-A10, USA).

S. aureus ATCC29213 = test: MIC by microdilution, S. aureus ATCC29213; format: cell-based, Staphylococcus aureus; settings: S. aureus ATCC29213 (MecA negative, wild-type), Mueller-Hinton broth, in duplicate
Method: as §1, §2, §3

S. aureus ATCC700699 = test: MIC by microdilution, S. aureus ATCC700699; format: cell-based, Staphylococcus aureus; parameters: unit not given here; settings: S. aureus ATCC700699 (MecA positive, glycopeptide resistant), in duplicate
Method: as §1, §2, §3

S. aureus ST20131365 = test: MIC by microdilution, S. aureus ST20131365; format: cell-based, Staphylococcus aureus; settings: S. aureus ST20131365 (MecA positive, glycopeptide resistant), in duplicate
Method: as §1, §2, §3

S. epidermidis ATCC14990 = test: MIC by microdilution, S. epidermidis ATCC14990; format: cell-based, Staphylococcus epidermidis; settings: S. epidermidis ATCC14990 (MecA negative, wild-type), in duplicate
Method: as §1, §2, §3

[1] = test system: S. epidermidis ST20150446; test: MIC by microdilution, S. epidermidis ST20150446; format: cell-based, Staphylococcus epidermidis; settings: S. epidermidis ST20150446 (MecA positive, glycopeptide resistant), in duplicate
Method: as §1, §2, §3

E. faecalis JH2-2 = test: MIC by microdilution, E. faecalis JH2-2; format: cell-based, Enterococcus faecalis; parameters: unit not given here; settings: E. faecalis JH2-2 (wild-type), in duplicate
Method: as §1, §2, §3

E. faecalis UCN41 = test: MIC by microdilution, E. faecalis UCN41; format: cell-based, Enterococcus faecalis; parameters: unit not given here; settings: E. faecalis UCN41 (VanA positive, glycopeptide resistant), in duplicate
Method: as §1, §2, §3

E. faecalis V583 = test: MIC by microdilution, E. faecalis V583; format: cell-based, Enterococcus faecalis; settings: E. faecalis V583 (VanB positive, glycopeptide resistant), in duplicate
Method: as §1, §2, §3

E. faecium ATCC19434T = test: MIC by microdilution, E. faecium ATCC19434T; format: cell-based, Enterococcus faecium; parameters: unit not given here; settings: E. faecium ATCC19434T (wild-type), in duplicate
Method: as §1, §2, §3

E. faecium BM4147 = test: MIC by microdilution, E. faecium BM4147; format: cell-based, Enterococcus faecium; parameters: unit not given here; settings: E. faecium BM4147 (VanA positive, glycopeptide resistant), in duplicate
Method: as §1, §2, §3

E. faecium AUS0004 = test: MIC by microdilution, E. faecium AUS0004; format: cell-based, Enterococcus faecium; settings: E. faecium AUS0004 (VanB positive, glycopeptide resistant), in duplicate
Method: as §1, §2, §3

E. coli ATCC25922 = test: MIC by microdilution, E. coli ATCC25922; format: cell-based, Escherichia coli; settings: E. coli ATCC25922 (wild-type), in duplicate
Method: as §1, §2, §3

[2] = test system: Clostridium difficile ATCC700057; test: MIC by microdilution, Clostridium difficile; format: cell-based; settings: strain ATCC70057 [sic] (Tables 1-2) / ATCC700057 (Tables 3-10), in duplicate
[3] = test system: panel of Gram-positive and Gram-negative strains; test: Antibacterial profile on the selected panel of strains; format: cell-based; settings: summary of Tables 1-12
Method: as §1, §2, §3

S. epidermidis ATCC35984 = test: MIC by microdilution, S. epidermidis ATCC35984; format: cell-based, Staphylococcus epidermidis; settings: S. epidermidis ATCC35984 (MecA positive), in duplicate
Method: as §1, §2, §3

[4] = test system: S. epidermidis ST20140436; test: MIC by microdilution, S. epidermidis ST20140436; format: cell-based, Staphylococcus epidermidis; settings: S. epidermidis ST20140436 (MecA positive, glycopeptide resistant), in duplicate
Method: as §1, §2, §3

Row | SMILES | Minimal Inhibitory Concentration (MIC) (S. aureus ATCC25923) | Minimal Inhibitory Concentration (MIC) (S. aureus ATCC29213) | Minimal Inhibitory Concentration (MIC) (S. aureus ATCC700699) | Minimal Inhibitory Concentration (MIC) (S. aureus ST20131365) | Minimal Inhibitory Concentration (MIC) (S. epidermidis ATCC14990) | Minimal Inhibitory Concentration (MIC) [1] | Minimal Inhibitory Concentration (MIC) (E. faecalis JH2-2) | Minimal Inhibitory Concentration (MIC) (E. faecalis UCN41) | Minimal Inhibitory Concentration (MIC) (E. faecalis V583) | Minimal Inhibitory Concentration (MIC) (E. faecium ATCC19434T) | Minimal Inhibitory Concentration (MIC) (E. faecium BM4147) | Minimal Inhibitory Concentration (MIC) (E. faecium AUS0004) | Minimal Inhibitory Concentration (MIC) (E. coli ATCC25922) | Minimal Inhibitory Concentration (MIC) [2] | antimicrobial / antibacterial activity (in words) [3] | Minimal Inhibitory Concentration (MIC) (S. epidermidis ATCC35984) | Minimal Inhibitory Concentration (MIC) [4]
1 | CC[P+](CC)(CC)[Au-][c]1nn[nH]c1-c1ccc(C(=O)NC(C(=O)O)c2ccccc2)cc1 (centres unmarked) [TMB23] | ≤0.06 | 0.125 | 0.125 | 0.125 | ≤0.06 | ≤0.06 | 0.25 | 0.125 | 0.125 and 0.25 | 0.25 | 0.25 and 0.5 | 0.25 | >8 | ≤0.06 | have antimicrobial activity | – | –
2 | CC[P+](CC)(CC)[Au-][c]1nn[nH]c1COC(=O)N[C@H](CC(=O)O)C(=O)O [TMB29] | 0.125 | 0.125 | 0.125 | 0.125 | ≤0.06 | – | 0.25 | 0.25 | 0.25 | 0.25 | 0.25 and 0.5 | 0.5 | >8 | ≤0.06 | have antimicrobial activity | ≤0.06 | ≤0.06
3 | CC[P+](CC)(CC)[Au-][c]1nn[nH]c1-c1ccc(C(=O)O)cc1 [TMB14] | 0.125 | 0.125 | 0.125 | 0.125 and 0.25 | ≤0.06 | – | 0.5 | 0.5 and 1 | 1 | 0.5 | 0.5 | 0.5 | >8 | 0.125 | have antimicrobial activity | ≤0.06 | –
4 | CC[P+](CC)(CC)[Au-][c]1nn[nH]c1-c1ccc(C(=O)NC(C(=O)NC2C(=O)N3C2SC(C)(C)C3C(=O)O)c2ccccc2)cc1 (centres unmarked) [TMB22] | 0.125 | 0.125 | 0.125 and 0.25 | 0.25 | ≤0.06 | – | 0.5 | 1 | 0.5 | 1 | 1 | 1 | >8 | ≤0.06 | have antimicrobial activity | – | –
5 | CC[P+](CC)(CC)[Au-][c]1nn[nH]c1-c1cn[nH]c1 [TMB31] | ≤0.06 | ≤0.06 | 0.125 | – | ≤0.06 | ≤0.06 | 0.25 | 0.25 | 0.25 | 0.25 | 0.25 | 0.25 | >8 | ≤0.06 | have antimicrobial activity | ≤0.06 | ≤0.06
6 | CC[P+](CC)(CC)[Au-][c]1nn[nH]c1C1CCC(C(=O)O)CC1 (centres unmarked) [TMB25] | – | 0.25 | 0.25 | – | ≤0.06 | 0.125 and 0.25 | 0.125 | 0.125 | 0.125 | 0.125 | 0.125 | 0.125 | >8 | ≤0.06 | have antimicrobial activity | ≤0.06 | –
7 | O=C(N[C@@H](C(=O)O)c1ccccc1)OCc1cnn[nH]1 [TMB41] | >8 | >8 | >8 | >8 | >8 | >8 | >8 | >8 | >8 | >8 | >8 | >8 | – | >8 | do not show an antibacterial activity | >8 | >8
8 | CC[P+](CC)(CC)[Au-][c]1nn[nH]c1-c1c(C)noc1C [TMB43] | ≤0.06 | 0.125 | 0.125 | 0.125 | ≤0.06 | ≤0.06 | 0.25 | 0.25 | 0.25 | 0.125 | 0.125 | 0.25 | – | 0.25 | have antimicrobial activity | ≤0.06 | 0.125
